Data on one molecule can be found in patent publication US20090074885A1, “Reversible Hydrophobic Modification of Drugs for Improved Delivery to Cells” (Roche Madison Inc., priority 2003, published 2009).

Series [1] has as its system SK-OV-3 ovarian tumors. As to the kind of experiment: Intraperitoneal perfusion chemotherapy (IPPC) in SK-OV-3 mouse model. The series is classed as in vivo. On the procedure: In a separate experiment, ovarian cancer development was monitored until signs of ascitis (4-5 wks). At this time, a test IPPC injection was conducted with C12PMMA-PI by adapting methodology typically used for peritoneal perfusion. Briefly, two 23 G Abbocath-T effluent catheters with multiple perforations were inserted into the peritoneal cavity and advanced to the region of the ovaries on both sides of the vertebra. The ascitic fluid was slowly aspirated with minimal negative pressure. Then an additional 23 G perforated catheter was inserted into abdomen and positioned on top of abdominal organs. 1 mL of drug/DMF/ITG solution was infused over 1 min, followed by repeated gentle massage. 5-7 min post administration, peritoneal fluid was again aspirated, and the peritoneal cavity was perfused with 10 mL of PBS via the top catheter, together with simultaneous aspiration via the lower two catheters. Special care was taken to avoid elevated abdominal pressure during the procedure. […] Confocal microscopy indicated a similar staining pattern as observed previously, with strong propidium iodide nuclear labeling of all of the outer cells exposed to peritoneal cavity, including ovarian tumors. […] All cells exposed to peritoneal cavity and thereby to the prodrug solution indicated prodrug uptake and staining, including: mesentery cells, outer layer of cells of abdominal organs, and disseminated peritoneal ovarian tumors. The tumor lesions still appeared to be more susceptible to drug uptake, indicating both greater tissue penetration and intense PI^+-staining as compared to normal abdominal tissue, with the exception of the mesentery which was also was heavily PI^+.

For series [2], the system named is MC38 tumor. Kind of series: Survival after LABI in MC38 tumor bearing mice. The series is classed as in vivo, C57BL mice. The note with it: 0.150 μmol by LABI, compared to hydrolyzed C12PMMA-PI. On the procedure: FIG. 13. Days of survival following LABI delivery of C12PMMA-PI (III) or hydrolyzed C12PMMA-PI to C57BL mice. Following three weeks of MC38 tumor development C12PMMA-PI or Hydrolyzed C12PMMA-PI (0.150 μmol in 20 μl DMSO, 200 μl ITG) were delivered by LABI. The mouse abdomen was closed 4 min after drug treatment and the animals were monitored for survival time.
In vivo antitumor effect following a liver arterial bolus injection with a RRH-PI to MC 38 tumor bearing mice. LABI was conducted as previously described in order to monitor the antitumor effect of an RRH-PI prodrug. In the experiment, III (n=11) or hydrolyzed C12PMMA-PI (n=9) were injected as previously described, the mouse abdomen was closed after drug treatment and the animals were monitored for survival time. Statistical analysis was conducted using a t-test (two tailed distribution and two sample—unequal variance, Excel).

Regarding `CCCCCCCCCCCCNC(=O)CCC(=CCC(=O)O)C(=O)Nc1ccc2c(c1)c(-c1ccccc1)[n+](CCC[N+](C)(CC)CC)c1cc(NC(=O)C(=CCC(=O)O)CCC(=O)NCCCCCCCCCCCC)ccc21.[I-].[I-]` [III, 3,8-bis-[2-(2 carboxyethylidene)-4-(dodecarbamoyl)-1-oxo-butylamine] 5-(3,3-diethyl-3-methylammoniumpropyl) 6-phenyl phenanthridinium diiodide], the “labeling of microtumors (0.1-1 mm)” value in series [1] is given as “heavily labeled throughout the tumor”. The “depth of labeling of large tumors (5-7 mm)” value in series [1] (4-5 wks after inoculation) was “about 500 microns”. Moreover, the “survival of the perfusion procedure” value in series [1] (sacrificed 3-5 h later) is “All animals survived the perfusion well”. For the same molecule, the survival entry in series [2] is “increased survival”.
